Assay results: PubChem BioAssay AID256 (DTP/NCI, 2004)
Where “and” joins values, the source holds several entries; their conditions need not be identical. Equal entries are not always repeated. Inconclusive results and toxic doses are left out. How the source made its calls: active means survival T/C of 150% or more; inactive means T/C below 125% in these data.

System: CD2F1 mice, L1210 leukemia ip, survival T/C
Assay: NCI In Vivo Anticancer Drug Screen. Data for tumor model L1210 Leukemia (intraperitoneal) in CD2F1 (CDF1) mice
Conditions: endpoint: mean survival time, higher = longer survival
In short: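 Mice carrying a transplanted tumor received test compound or vehicle alone. The value is the measurement in the treated group divided by that in the vehicle-treated control group.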

[1] = dose: 100.0 mg/kg/injection, schedule: Q04DX003 (ip), vehicle: saline
[2] = dose: 200.0 mg/kg/injection, schedule: Q04DX003 (ip), vehicle: saline
[3] = dose: 400.0 mg/kg/injection, schedule: Q04DX003 (ip), vehicle: saline
[4] = dose: 100.0 mg/kg/injection, schedule: Q01DX009 (ip), vehicle: saline with Tween-80
[5] = dose: 100.0 mg/kg/injection, schedule: Q04DX003 (ip), vehicle: saline with Tween-80
[6] = dose: 200.0 mg/kg/injection, schedule: Q04DX003 (ip), vehicle: saline with Tween-80
[7] = dose: 400.0 mg/kg/injection, schedule: Q04DX003 (ip), vehicle: saline with Tween-80
[8] = dose: 200.0 mg/kg/injection, schedule: Q01DX009 (ip), vehicle: saline with Tween-80
[9] = dose: 400.0 mg/kg/injection, schedule: Q01DX009 (ip), vehicle: saline with Tween-80
[10] = dose: 50.0 mg/kg/injection, schedule: Q04DX002 (ip), vehicle: saline with Tween-80
[11] = dose: 100.0 mg/kg/injection, schedule: Q04DX002 (ip), vehicle: saline with Tween-80
[12] = dose: 200.0 mg/kg/injection, schedule: Q04DX002 (ip), vehicle: saline with Tween-80
[13] = dose: 400.0 mg/kg/injection, schedule: Q04DX002 (ip), vehicle: saline with Tween-80

Measured: T/C

CC1CC1C(N)=O (stereo unspecified)
inactive: dose: 50.0 mg/kg/injection, schedule: Q04DX002 (ip), vehicle: saline 103 % of control | dose: 100.0 mg/kg/injection, schedule: Q04DX002 (ip), vehicle: saline 98 % of control and 102 % of control | dose: 200.0 mg/kg/injection, schedule: Q04DX002 (ip), vehicle: saline 98 % of control and 103 % of control | dose: 400.0 mg/kg/injection, schedule: Q04DX002 (ip), vehicle: saline 101 % of control and 104 % of control | dose: 600.0 mg/kg/injection, schedule: Q04DX002 (ip), vehicle: saline 98 % of control | dose: 800.0 mg/kg/injection, schedule: Q04DX002 (ip), vehicle: saline 100 % of control

CN(C)C(CCN1CCCCC1)CN1CCCCC1 (stereo unspecified)
inactive: dose: 100.0 mg/kg/injection, schedule: Q01DX009 (ip), vehicle: saline 101 % of control | [1] 101 % of control | dose: 200.0 mg/kg/injection, schedule: Q01DX009 (ip), vehicle: saline 98 % of control | [2] 101 % of control | dose: 400.0 mg/kg/injection, schedule: Q01DX009 (ip), vehicle: saline 102 % of control | [3] 98 % of control

CC(C)=CCNc1ncnc2c1ncn2C1OC(CO)C(O)C1O (stereo unspecified)
inactive: [4] 95 % of control | [5] 91 % of control | [6] 101 % of control | [7] 100 % of control

O=C(CNC(=O)NCc1ccco1)NNC(=O)Nc1ccc(Cl)c([N+](=O)[O-])c1
inactive: [4] 94 % of control | [8] 87 % of control | [9] 91 % of control

O=S(=O)(Cl)OC(CCl)C(OS(=O)(=O)Cl)C(OS(=O)(=O)Cl)C(CCl)OS(=O)(=O)Cl (stereo unspecified)
inactive: [4] 92 % of control | [8] 100 % of control | [9] 100 % of control

[NH-]CC[NH-].[NH-]CC[NH-].[NH-]CC[NH-].[Ni+2].[O-][Cl+3]([O-])([O-])O
inactive: dose: 25.0 mg/kg/injection, schedule: Q04DX002 (ip), vehicle: saline with Tween-80 117 % of control | [10] 92 % of control

O=C(O)C1CC(n2cnc3c(=O)[nH]cnc32)CN1 (stereo unspecified)
inactive: [10] 96 % of control | [11] 110 % of control | [12] 93 % of control | [13] 93 % of control

COC(=O)c1[se]c(C(=O)OC)c(-c2ccccc2)c1-c1ccccc1
inactive: dose: 100.0 mg/kg/injection, schedule: Q01DX001 (ip), vehicle: saline 100 % of control | dose: 200.0 mg/kg/injection, schedule: Q01DX001 (ip), vehicle: saline 103 % of control | dose: 400.0 mg/kg/injection, schedule: Q01DX001 (ip), vehicle: saline 103 % of control

Cc1cc(S(N)(=O)=O)c(N)c(S(N)(=O)=O)c1
inactive: [5] 96 % of control | [6] 93 % of control | [7] 102 % of control

Clc1ccc(SCNc2ccccc2Cl)cc1
inactive: [11] 100 % of control | [12] 100 % of control | [13] 100 % of control

NC1=NCNC(=O)N1
inactive: dose: 6.25 mg/kg/injection, schedule: Q04DX003 (ip), vehicle: saline 102 % of control | dose: 12.5 mg/kg/injection, schedule: Q04DX003 (ip), vehicle: saline 91 % of control | dose: 25.0 mg/kg/injection, schedule: Q04DX003 (ip), vehicle: saline 93 % of control | dose: 50.0 mg/kg/injection, schedule: Q04DX003 (ip), vehicle: saline 98 % of control | [1] 96 % of control | [2] 96 % of control | [3] 98 % of control

O=C1Nc2ccccc2C(=O)Nc2ccccc21
inactive: dose: 100.0 mg/kg/injection, schedule: Q01DX009 (ip), vehicle: Klucel (hydroxypropylcellulose) (HPC) 93 % of control | dose: 200.0 mg/kg/injection, schedule: Q01DX009 (ip), vehicle: Klucel (hydroxypropylcellulose) (HPC) 89 % of control
